Patent publication US9957472B2, “Deterministic high-density single-cell trap array” (Georgia Tech Research Corporation, priority 2011, dated 2018)

What was measured:
[1] = system: human embryonic kidney 293 cells; settings: clonal HEK 293 cells challenged with caffeine; cited from earlier work
[2] = system: Jurkat cells; experiment: Calcium response of trapped Fluo-3-loaded Jurkat cells to ionomycin on chip (cell trap arrays with concentration gradient generator); format: cell-based, human
Experimental: Jurkat E6-1 human acute T cell lymphoma cells (ATCC) were cultured in RPMI 1640 medium with L-glutamine (Sigma-Aldrich, St. Louis, Mo.) with 10 mM HEPES, 1 mM sodium pyruvate, 1×MEM nonessential amino acids, and 100 units mL^−1 penicillin streptomycin (Cellgro), supplemented with 10% certified heat inactivated fetal bovine serum (Sigma-Aldrich, St. Louis, Mo.), at 37° C. in a humidified 5% CO2 incubator. For nuclei visualisation, Jurkat cells were incubated with Hoechst 33258, at a final concentration of 1 μg mL^−1, at 37° C. for 20 minutes.
Cells were checked for viability using Live/Dead stain (Invitrogen) following the manufacturer's protocol. For high resolution microscopy, 10^6 cells were fixed in a 5% formalin solution (Sigma-Aldrich, St. Louis, Mo.) for 15 minutes at 37° C., washed three times with cold PBS, and resuspended in 100 μL of ice cold 90% methanol. Immunostaining was performed on fixed cells using […] for DNA staining, mouse α-calnexin (Abcam) for ER staining, and rabbit α-profilin-1 (Cell Signaling), as a cytoplasmic localized protein. Incubation with the primary antibody for one hour at room temperature was followed by three wash steps with a solution of 2% BSA in PBS and incubation for 40 minutes at room temperature with the following secondary antibodies: Alexa 488 α-mouse (Invitrogen) and goat α-rabbit TRITC (Southern Biotech). To monitor calcium signaling, Jurkat cells were incubated with 5 μM Fluo-3 (Invitrogen) for 20 minutes at 37° C., washed with cold PBS, and loaded into the cell traps. Trapped cells were stimulated with ionomycin (Sigma, St. Louis, Mo.) at various concentrations to release intracellular calcium.
Before each experiment, the microfluidic devices were primed using a solution of 2% BSA in PBS to remove any air bubbles and limit undesirable cell adhesion to the wall. A pressure difference of 3.5 kPa (5.5 kPa for devices with upstream serial-dilution gradient generator) created by gravity was used to drive the flow, resulting to an average flow rate of ˜2 μL h^−1. Cell loading was obtained by pipetting 2 μL of 5×10^6 cell mL^−1 of cell suspension on the chip positioned on the microscope stage. Further experiments (staining, stimulation) were performed by adding 5 μL of 4× chemicals in the inlet hole and flowing over the trapped cells for the desired time. All experiments were performed in a microcontrolled environment (temperature set at 37° C. in a humidified 5% CO2 environment).
A […] (SIMCA-P, Umetrics) was run on a known dataset of objects to determine the two most informative predictors of the number of cells contained in an object. The perimeter and the extent (ratio of pixels in the object to pixels in the total bounding box) were found as being the most informative. To quantify single cell trapping efficiency, the distribution of objects in the perimeter-extent space was fitted to a 2-component Gaussian mixture model for each chamber trap array. The maximum likelihood parameters from each of the two subpopulations were retrieved and represented respectively the percentage of single cell objects and multiple cell objects. Single cell response intensities were obtained by tracking the mean intensity of each object considered as a single cell in the overlaid mask and image over time.
The present trap arrays can also be easily integrated with upstream microfluidic components capable of multiplexing experiments, where cells can be exposed to different extracellular conditions on a single chip. […] After loading cells containing Fluo-3, more than 1,000 individual cells were monitored for an hour after the addition of different concentrations of the calcium ionophore ionomycin. Ionomycin increases intracellular calcium via mobilization of both extracellular and intracellular calcium stores in T cells. As expected, increased concentration of stimulus lead to increased average intracellular calcium concentration (FIG. 17). […]

Row | SMILES | cells responding with an elevation in intracellular calcium [1] [%] | % Responding Cells ([2]; ionomycin 0.08 μM, chamber 8, 250 tracked cells) [%] | % Responding Cells ([2]; ionomycin 0.2 μM, chamber 7, 306 tracked cells) [%] | % Responding Cells ([2]; ionomycin 0.5 μM, chamber 6, 273 tracked cells) [%] | % Responding Cells ([2]; ionomycin 0.8 μM, chamber 5, 287 tracked cells) [%] | % Responding Cells ([2]; ionomycin 1.4 μM, chamber 4, 322 tracked cells) [%] | % Responding Cells ([2]; ionomycin 1.8 μM, chamber 3, 263 tracked cells) [%] | % Responding Cells ([2]; ionomycin 2.2 μM, chamber 2, 328 tracked cells) [%] | % Responding Cells ([2]; ionomycin 2.5 μM, chamber 1, 342 tracked cells) [%]
1 | Cn1c(=O)c2c(ncn2C)n(C)c1=O [caffeine] | 40 | – | – | – | – | – | – | – | –
2 | C[C@H](CCC(=O)O)C[C@H](C)C[C@H](C)C(=O)/C=C(\O)[C@H](C)C[C@H](C)C/C=C/[C@@H](C)[C@@H](O)[C@@H](C)[C@@H](O)C[C@@H]1CC[C@@](C)([C@H]2CC[C@@](C)([C@@H](C)O)O2)O1 [ionomycin] | – | 4 | 17 | 19.1 | 25.4 | 31.1 | 31.9 | 33.2 | 44
